# Laboratory results taken from paper PMC8231556, “Inhibiting Endothelial Cell Function in Normal and Tumor Angiogenesis Using BMP Type I Receptor Macrocyclic Kinase Inhibitors” (Cancers, 2021).
# Columns and labels:
# Assay in all cases: radiometric kinase profiling (33 PanQinase)
# Assay type in all cases: biochemical
# GRK6 = target: T1, GRK6 (Homo sapiens, UniProt P43250); conditions: read-out: Inhibitory effect (%) GRK6
# T1 construct: purchased ProQinase (33PanQinase Activity Assay)
# Description: (§1) The kinase inhibition profile of the compounds was determined by testing 96 protein kinases’ activity using a radiometric protein kinase assay (33 PanQinase® Activity Assay, Proqinase, Germany). In brief, 10 µL of non-radioactive ATP solution (in H2O), 25 µL of assay buffer/[γ-33 P]-ATP mixture, 5 µL of 0.1 μM the tested compound in 10% DMSO and 10 µL of enzyme/substrate were mixed in 96-well FlashPlatesTM (Perkin Elmer, Boston, MA, USA). The reaction was conducted at 30 °C for 60 min. To stop the reaction, 50 µL of 2% (v/v) H3PO4 was added into the protein kinase reaction cocktails. After which, with 200 µL 0.9% (w/v) NaCl twice, the incorporation of ^33 Pi (counting of “cpm”) was determined with a microplate scintillation counter (Wallac Microbeta, Boston, MA, USA). All protein kinase assays were performed using a BeckmanCoulter Biomek 2000/SL robotic system (Brea, CA, USA). The residual activity (in %) for each compound was normalized to 100% enzyme activity (untreated control) and background (negative control).
# CHEK1 = target: T2, CHEK1 (Homo sapiens, UniProt O14757); conditions: read-out: Inhibitory effect (%) CHEK1
# T2 construct: purchased Proqinase, Germany
# T2 sequence (O14757 1-476): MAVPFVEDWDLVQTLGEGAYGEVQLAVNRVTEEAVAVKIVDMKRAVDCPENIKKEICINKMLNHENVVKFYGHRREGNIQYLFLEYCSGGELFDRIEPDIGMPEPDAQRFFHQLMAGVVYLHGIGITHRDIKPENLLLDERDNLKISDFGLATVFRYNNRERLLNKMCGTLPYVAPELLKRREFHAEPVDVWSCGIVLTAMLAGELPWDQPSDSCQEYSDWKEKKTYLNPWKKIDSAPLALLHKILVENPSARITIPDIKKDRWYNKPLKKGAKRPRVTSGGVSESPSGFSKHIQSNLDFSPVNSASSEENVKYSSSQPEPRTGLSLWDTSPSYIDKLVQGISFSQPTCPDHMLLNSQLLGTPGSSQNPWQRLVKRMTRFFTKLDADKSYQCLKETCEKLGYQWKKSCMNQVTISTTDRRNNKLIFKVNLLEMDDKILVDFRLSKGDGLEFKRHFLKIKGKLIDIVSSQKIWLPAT
# Description: as §1
# EPHA2 = target: T3, EPHA2 (Homo sapiens, UniProt P29317); conditions: read-out: Inhibitory effect (%) EPHA2
# T3 construct: purchased Proqinase, Germany
# Description: as §1
# EPHB4 = target: T4, EPHB4 (Homo sapiens, UniProt P54760); conditions: read-out: Inhibitory effect (%) EPHB4
# T4 construct: purchased ProQinase (33PanQinase Activity Assay)
# T4 sequence (P54760 16-987): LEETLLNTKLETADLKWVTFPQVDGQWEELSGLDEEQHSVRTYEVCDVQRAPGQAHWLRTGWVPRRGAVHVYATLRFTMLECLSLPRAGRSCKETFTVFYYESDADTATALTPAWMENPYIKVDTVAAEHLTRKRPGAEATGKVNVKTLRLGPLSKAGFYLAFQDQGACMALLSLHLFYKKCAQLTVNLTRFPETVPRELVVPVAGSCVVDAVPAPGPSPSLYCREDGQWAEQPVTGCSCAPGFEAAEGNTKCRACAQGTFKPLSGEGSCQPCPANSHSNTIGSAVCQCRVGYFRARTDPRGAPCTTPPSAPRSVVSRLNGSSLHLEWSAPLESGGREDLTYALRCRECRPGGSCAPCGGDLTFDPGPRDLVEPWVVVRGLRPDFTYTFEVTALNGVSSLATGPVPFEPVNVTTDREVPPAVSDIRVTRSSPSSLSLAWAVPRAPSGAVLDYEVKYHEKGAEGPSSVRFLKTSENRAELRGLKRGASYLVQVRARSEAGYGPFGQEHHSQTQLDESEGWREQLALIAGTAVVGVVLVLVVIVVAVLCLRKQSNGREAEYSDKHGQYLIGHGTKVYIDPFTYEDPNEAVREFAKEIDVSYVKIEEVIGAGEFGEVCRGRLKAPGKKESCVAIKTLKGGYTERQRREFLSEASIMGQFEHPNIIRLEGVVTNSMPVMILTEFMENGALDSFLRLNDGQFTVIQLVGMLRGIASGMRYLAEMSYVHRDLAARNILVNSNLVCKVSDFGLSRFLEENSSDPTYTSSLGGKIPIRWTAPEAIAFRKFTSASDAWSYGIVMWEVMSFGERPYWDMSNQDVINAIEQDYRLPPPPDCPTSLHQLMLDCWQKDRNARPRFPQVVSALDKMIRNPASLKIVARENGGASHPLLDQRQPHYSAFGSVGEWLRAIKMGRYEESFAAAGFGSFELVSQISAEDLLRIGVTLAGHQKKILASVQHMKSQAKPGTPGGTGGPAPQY
# Description: as §1
# MAP3K7 = target: T5, MAP3K7 (Homo sapiens, UniProt O43318); conditions: read-out: Inhibitory effect (%) MAP3K7
# T5 construct: purchased ProQinase (33PanQinase Activity Assay)
# T5 sequence (O43318 1-303 limits assumed): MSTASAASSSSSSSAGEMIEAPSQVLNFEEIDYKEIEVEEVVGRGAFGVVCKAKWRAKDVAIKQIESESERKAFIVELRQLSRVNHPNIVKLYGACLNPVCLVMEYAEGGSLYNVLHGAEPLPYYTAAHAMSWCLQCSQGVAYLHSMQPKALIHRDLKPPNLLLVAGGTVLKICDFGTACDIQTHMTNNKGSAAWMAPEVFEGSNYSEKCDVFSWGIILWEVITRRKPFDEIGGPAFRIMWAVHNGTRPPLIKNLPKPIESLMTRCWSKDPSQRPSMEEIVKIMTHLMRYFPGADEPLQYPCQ
# Description: as §1
# RPS6KA1 = target: T6, RPS6KA1 (Homo sapiens, UniProt Q15418); conditions: read-out: Inhibitory effect (%) RPS6KA1
# T6 construct: purchased ProQinase (33PanQinase Activity Assay)
# Description: as §1
# PRKCB1_II = target: T7, PRKCB1_II (Homo sapiens, UniProt P05771); conditions: read-out: Inhibitory effect (%) PRKCB1_II
# T7 construct: purchased ProQinase (33PanQinase Activity Assay)
# Description: as §1
# FYN = target: T8, FYN (Homo sapiens, UniProt P06241); conditions: read-out: Inhibitory effect (%) FYN
# T8 construct: purchased ProQinase (33PanQinase Activity Assay)
# Description: as §1
# CDK9_cyclinT1 = target: T9, CDK9_cyclinT1 (Homo sapiens, UniProt P50750); conditions: read-out: Inhibitory effect (%) CDK9_cyclinT1
# T9 construct: purchased Proqinase, Germany
# Description: as §1
# PAK2 = target: T10, PAK2 (Homo sapiens, UniProt Q13177); conditions: read-out: Inhibitory effect (%) PAK2
# T10 construct: purchased ProQinase (33PanQinase Activity Assay)
# Description: as §1
# PTK2 = target: T11, PTK2 (Homo sapiens, UniProt Q05397); conditions: read-out: Inhibitory effect (%) PTK2
# T11 construct: purchased ProQinase (33PanQinase Activity Assay)
# Description: as §1
# T3 sequence (P29317 24-976): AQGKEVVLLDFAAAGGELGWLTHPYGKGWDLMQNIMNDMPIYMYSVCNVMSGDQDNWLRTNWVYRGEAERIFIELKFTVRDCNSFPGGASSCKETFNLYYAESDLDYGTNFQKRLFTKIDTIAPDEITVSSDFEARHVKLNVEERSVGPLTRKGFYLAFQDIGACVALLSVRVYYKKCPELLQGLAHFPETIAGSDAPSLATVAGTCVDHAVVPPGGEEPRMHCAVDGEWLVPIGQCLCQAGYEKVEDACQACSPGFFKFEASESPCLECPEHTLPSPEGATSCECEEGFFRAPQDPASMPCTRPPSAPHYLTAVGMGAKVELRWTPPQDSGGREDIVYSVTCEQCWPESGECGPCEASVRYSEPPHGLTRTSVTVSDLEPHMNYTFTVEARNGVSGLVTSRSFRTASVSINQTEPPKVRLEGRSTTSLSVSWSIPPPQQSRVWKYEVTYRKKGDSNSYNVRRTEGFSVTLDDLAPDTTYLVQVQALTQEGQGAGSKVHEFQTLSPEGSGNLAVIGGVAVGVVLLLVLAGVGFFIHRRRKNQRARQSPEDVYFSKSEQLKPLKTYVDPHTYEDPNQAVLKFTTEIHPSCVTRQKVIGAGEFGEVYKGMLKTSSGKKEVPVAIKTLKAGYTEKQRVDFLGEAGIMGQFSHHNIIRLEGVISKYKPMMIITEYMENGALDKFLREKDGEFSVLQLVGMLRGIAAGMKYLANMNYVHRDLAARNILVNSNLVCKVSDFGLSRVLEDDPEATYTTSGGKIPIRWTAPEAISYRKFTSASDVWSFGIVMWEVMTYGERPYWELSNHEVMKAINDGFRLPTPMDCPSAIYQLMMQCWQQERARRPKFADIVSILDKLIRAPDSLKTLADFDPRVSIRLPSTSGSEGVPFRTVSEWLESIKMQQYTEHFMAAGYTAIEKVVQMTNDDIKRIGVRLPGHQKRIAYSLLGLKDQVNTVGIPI
# T7 sequence (P05771 1-673 isoform P05771-2): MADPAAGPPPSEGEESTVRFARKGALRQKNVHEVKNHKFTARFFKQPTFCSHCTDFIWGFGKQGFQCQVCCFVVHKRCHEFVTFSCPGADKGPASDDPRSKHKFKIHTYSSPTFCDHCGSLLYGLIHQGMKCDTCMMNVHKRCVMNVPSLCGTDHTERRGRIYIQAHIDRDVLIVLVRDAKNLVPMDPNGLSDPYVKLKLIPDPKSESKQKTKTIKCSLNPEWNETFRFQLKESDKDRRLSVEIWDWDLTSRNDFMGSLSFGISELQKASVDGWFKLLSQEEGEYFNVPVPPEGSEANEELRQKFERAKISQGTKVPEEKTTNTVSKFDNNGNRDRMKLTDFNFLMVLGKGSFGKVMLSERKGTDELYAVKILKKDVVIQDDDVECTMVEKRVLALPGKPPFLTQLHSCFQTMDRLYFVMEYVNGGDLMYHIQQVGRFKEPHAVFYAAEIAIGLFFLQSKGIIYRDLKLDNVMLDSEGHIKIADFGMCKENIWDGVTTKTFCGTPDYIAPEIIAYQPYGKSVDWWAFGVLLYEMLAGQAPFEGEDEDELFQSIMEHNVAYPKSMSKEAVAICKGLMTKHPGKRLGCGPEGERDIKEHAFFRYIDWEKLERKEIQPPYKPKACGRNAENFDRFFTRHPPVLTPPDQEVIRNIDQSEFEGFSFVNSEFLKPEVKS
# T11 sequence (Q05397 whole entry): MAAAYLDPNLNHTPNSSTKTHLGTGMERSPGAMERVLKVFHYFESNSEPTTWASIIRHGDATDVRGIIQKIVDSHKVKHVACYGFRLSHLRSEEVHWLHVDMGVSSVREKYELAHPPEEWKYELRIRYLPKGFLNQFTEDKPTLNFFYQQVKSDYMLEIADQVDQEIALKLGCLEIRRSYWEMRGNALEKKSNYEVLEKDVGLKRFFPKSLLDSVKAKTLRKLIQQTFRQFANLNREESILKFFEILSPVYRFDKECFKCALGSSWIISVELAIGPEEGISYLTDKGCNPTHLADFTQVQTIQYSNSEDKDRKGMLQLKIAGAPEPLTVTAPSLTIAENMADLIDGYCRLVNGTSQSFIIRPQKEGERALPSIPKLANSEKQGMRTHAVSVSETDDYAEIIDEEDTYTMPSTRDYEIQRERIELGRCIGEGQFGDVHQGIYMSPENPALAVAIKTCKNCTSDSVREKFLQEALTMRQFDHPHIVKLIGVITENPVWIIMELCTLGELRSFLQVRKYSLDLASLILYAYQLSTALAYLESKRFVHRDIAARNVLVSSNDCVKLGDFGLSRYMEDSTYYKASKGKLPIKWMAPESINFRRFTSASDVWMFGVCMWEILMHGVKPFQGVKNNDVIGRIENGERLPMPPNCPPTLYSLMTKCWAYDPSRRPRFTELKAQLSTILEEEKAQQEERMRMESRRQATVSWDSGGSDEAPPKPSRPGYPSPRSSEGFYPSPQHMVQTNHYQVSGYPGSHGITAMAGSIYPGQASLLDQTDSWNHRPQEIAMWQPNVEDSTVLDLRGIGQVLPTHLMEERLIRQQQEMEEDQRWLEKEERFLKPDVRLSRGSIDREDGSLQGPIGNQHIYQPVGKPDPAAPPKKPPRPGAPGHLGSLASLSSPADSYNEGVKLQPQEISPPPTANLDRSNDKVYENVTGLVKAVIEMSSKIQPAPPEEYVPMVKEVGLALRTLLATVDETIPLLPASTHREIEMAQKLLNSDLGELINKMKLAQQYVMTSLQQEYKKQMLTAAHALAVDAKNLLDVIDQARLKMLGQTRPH
# T8 sequence (P06241 whole entry): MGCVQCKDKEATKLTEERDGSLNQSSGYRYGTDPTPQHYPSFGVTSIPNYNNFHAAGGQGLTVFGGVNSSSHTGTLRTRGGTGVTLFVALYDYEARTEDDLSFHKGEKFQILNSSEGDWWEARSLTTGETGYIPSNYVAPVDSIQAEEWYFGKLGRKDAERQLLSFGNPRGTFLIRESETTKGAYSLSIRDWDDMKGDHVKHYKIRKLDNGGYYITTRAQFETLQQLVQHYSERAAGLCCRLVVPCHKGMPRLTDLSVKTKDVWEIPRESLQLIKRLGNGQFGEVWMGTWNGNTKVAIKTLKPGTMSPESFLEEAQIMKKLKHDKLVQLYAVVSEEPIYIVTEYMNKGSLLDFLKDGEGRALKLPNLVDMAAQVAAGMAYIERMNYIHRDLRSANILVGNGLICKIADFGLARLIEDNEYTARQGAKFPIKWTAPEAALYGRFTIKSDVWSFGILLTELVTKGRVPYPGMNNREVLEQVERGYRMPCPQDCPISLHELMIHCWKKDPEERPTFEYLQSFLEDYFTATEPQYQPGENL
# T6 sequence (Q15418 whole entry): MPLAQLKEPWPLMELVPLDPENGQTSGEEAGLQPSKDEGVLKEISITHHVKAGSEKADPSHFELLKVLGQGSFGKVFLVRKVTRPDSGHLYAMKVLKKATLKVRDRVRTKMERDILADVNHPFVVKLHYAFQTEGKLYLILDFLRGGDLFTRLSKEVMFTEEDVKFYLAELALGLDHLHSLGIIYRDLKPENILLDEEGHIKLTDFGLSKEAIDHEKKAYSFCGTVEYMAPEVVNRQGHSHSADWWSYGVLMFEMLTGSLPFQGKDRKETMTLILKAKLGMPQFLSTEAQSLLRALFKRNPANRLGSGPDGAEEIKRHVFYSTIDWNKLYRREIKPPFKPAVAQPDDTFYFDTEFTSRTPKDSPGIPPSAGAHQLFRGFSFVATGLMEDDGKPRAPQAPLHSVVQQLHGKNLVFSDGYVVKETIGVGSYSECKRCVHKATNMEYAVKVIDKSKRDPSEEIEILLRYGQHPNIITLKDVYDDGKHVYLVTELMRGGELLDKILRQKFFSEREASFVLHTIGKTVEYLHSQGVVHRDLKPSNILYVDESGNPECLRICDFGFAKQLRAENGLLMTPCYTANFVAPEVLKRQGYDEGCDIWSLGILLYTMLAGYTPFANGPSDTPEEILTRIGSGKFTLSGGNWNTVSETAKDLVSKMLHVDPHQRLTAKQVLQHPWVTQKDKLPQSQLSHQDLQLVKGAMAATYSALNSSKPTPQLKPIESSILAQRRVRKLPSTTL
# T9 sequence (P50750 whole entry): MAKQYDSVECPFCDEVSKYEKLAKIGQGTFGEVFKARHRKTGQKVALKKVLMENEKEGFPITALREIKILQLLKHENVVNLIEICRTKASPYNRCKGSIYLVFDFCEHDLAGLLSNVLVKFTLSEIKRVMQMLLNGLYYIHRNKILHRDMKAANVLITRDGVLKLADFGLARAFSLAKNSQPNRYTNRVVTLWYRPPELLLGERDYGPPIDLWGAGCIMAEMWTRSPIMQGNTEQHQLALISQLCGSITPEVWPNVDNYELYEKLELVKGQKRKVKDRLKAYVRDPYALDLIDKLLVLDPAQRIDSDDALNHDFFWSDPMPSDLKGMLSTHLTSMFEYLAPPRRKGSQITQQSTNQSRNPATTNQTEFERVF
# T9 sequence (O60563 whole entry partner): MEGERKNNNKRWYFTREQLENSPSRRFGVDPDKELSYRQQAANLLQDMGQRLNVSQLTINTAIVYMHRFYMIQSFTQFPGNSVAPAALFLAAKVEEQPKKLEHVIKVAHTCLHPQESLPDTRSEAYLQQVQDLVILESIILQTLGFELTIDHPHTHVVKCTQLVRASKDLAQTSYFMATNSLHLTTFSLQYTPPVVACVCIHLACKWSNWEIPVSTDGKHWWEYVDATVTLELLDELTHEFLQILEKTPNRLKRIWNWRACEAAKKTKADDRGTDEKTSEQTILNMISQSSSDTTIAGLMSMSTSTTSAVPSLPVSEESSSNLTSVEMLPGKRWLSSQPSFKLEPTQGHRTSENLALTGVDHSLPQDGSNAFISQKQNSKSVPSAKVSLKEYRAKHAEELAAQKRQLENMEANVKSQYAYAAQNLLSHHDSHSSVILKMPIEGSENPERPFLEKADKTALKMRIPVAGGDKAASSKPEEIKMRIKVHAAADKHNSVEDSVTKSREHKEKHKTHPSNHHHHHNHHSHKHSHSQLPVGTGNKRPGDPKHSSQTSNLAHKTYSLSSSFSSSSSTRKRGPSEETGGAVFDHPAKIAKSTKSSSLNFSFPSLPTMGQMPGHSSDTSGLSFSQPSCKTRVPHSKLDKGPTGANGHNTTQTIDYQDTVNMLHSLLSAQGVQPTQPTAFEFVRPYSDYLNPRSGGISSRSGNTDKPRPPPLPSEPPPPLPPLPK
Structure (SMILES),inhibition at 0.1 µM (GRK6),inhibition at 0.1 µM (CHEK1),inhibition at 0.1 µM (EPHA2),inhibition at 0.1 µM (EPHB4),inhibition at 0.1 µM (MAP3K7),inhibition at 0.1 µM (RPS6KA1),inhibition at 0.1 µM (PRKCB1_II),inhibition at 0.1 µM (FYN),inhibition at 0.1 µM (CDK9_cyclinT1),inhibition at 0.1 µM (PAK2),inhibition at 0.1 µM (PTK2)
"c1ccc2c(-c3cnn4cc(-c5ccc(N6CCNCC6)cc5)cnc34)ccnc2c1 [LDN-193189, reference compound]",-1.81%,-34.6%,-17.2%,4.39%,7.07%,-10.4%,1.8%,28.1%,-26.7%,-2.66%,4.03%
CN1CCc2cccc(c2)Nc2nccc(n2)N2CCCc3cc(ccc32)C1 [OD16],-2.14%,0.85%,-21.9%,-36.6%,-6.98%,17%,15.9%,-31%,54.2%,-27.1%,17.1%
CN1CCC(=O)NCCNc2ccn3ncc(c3n2)-c2cccc(c2)C1 [OD29],0.04%,4.25%,10.4%,3.64%,11.4%,5.09%,3.7%,24.6%,-2.77%,7.91%,-0.22%
